# Results from patent publication US7989464B2, “mGluR1 antagonists as therapeutic agents” (Schering Corporation, priority 2004, dated 2011).
# Molecular target: T1, hmGluR1 receptor (Homo sapiens, UniProt Q13255)
# T1 construct: expressed in transfected cells
# Experiment: IC50 determination: intracellular calcium mobilization (FLIPR) upon Quisqualate stimulation in CHO cells stably expressing hmGluR1
# Type: cell-based
# Conditions: against Quisqualate 1 μM (EC80), FLIPR calcium mobilization, read-out: IC50 Class
# Description: A CHO cell line stably expressing hmGluR1 receptor was established. One day prior to assay, cells were split in growth media at concentration of 50,000 cells/well in a volume of 100 μl and seeded into black clear-bottom 96-well plates. After two to six hours, when cells were well attached to the plate, growth medium was replaced with assay medium (100 μL) consisting of DMEM high glucose, supplemented with GPT (1 U/mL) and Sodium pyruvate, 1 mM. Following overnight incubation, medium was discarded and cells were loaded for 2 h with dye from the Calcium 3 Assay Reagent Kit (Molecular Devices, # R8033), prepared according to manufacturers' instructions. […] Test compounds were added 10 minutes before Quisqualate.
# T1 sequence (Q13255 19-1194): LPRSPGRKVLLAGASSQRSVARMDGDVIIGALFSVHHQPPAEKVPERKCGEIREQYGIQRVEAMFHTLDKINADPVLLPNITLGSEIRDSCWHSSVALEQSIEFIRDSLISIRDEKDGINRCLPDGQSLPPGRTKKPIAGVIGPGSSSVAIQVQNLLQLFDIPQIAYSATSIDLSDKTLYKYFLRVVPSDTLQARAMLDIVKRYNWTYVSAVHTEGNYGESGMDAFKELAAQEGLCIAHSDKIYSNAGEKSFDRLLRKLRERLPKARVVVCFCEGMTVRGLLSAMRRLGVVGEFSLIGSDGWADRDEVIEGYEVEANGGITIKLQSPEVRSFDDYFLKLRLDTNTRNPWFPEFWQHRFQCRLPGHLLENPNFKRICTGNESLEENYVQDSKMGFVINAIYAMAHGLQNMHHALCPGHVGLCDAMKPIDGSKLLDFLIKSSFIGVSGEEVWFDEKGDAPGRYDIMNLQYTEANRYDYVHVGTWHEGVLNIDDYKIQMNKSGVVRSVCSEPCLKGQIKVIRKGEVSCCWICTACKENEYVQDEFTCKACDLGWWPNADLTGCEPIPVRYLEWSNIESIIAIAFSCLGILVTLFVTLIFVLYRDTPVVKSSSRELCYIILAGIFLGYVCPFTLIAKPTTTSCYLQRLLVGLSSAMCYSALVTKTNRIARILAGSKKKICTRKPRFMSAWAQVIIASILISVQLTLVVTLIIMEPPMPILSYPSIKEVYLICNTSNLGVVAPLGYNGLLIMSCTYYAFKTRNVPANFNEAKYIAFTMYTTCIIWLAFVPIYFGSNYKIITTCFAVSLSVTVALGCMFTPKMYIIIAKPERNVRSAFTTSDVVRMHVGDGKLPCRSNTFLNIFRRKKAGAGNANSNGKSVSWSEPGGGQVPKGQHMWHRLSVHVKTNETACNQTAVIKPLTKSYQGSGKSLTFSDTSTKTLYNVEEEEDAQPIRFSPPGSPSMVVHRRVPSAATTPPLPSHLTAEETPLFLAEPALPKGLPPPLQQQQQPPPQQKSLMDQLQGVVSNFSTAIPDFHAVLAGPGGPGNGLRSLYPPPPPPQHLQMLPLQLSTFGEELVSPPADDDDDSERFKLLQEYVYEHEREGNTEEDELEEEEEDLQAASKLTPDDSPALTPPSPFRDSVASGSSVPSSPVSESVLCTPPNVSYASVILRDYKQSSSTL
row,Structure (SMILES),IC50
1,COc1ccc(-n2cnc3c(sc4nccc(N(C)CC(O)CO)c43)c2=O)cc1 (centres unmarked) [28HV],< 50 nM
2,O=c1c2sc3ncnc(NCC4CC4)c3c2ncn1-c1ccc(Cl)cc1 [95DR],50 to 150 nM
3,COc1ccc(Nc2ncnc3sc4c(=O)n(-c5ccc(OC)cc5)cnc4c23)cc1 [190B],50 to 150 nM
4,COc1ccc(-n2cnc3c(sc4ncnc(NC5CC5)c43)c2=O)c(C)c1 [95AW],< 50 nM
5,C=C(C)CNc1ncnc2sc3c(=O)n(-c4ccccc4)cnc3c12 [95FH],< 50 nM
6,CCc1ccnc2sc3c(=O)n(-c4ccc(OC)cc4)cnc3c12 [29I],< 50 nM
7,CCN(C)c1ccnc2sc3c(=O)n(-c4ccc(Cl)cc4)cnc3c12 [28IC],< 50 nM
8,CCNc1ccnc2sc3c(=O)n(-c4cccc(Br)c4)cnc3c12 [28CR],50 to 150 nM
9,C#CCNc1ncnc2sc3c(=O)n(-c4ccc(Br)cc4)cnc3c12 [95EQ],< 50 nM
10,Cc1ccc(-n2cnc3c(sc4nccc(N5CC[C@H](O)C5)c43)c2=O)cc1 [28CU],> 1000 nM
11,O=c1c2sc3nccc(NC4CC4)c3c2ncn1-c1cccc(F)c1 [28CN],< 50 nM
12,Cc1ccc(-n2cnc3c(sc4nccc(NC5CCC(O)CC5)c43)c2=O)cc1 (centres unmarked) [28DE],150 to 1000 nM
13,COc1c(Br)cnc2sc3c(=O)n(-c4ccc(Cl)cc4)cnc3c12 [28EH],< 50 nM
14,CC(=O)NN(C)c1ccnc2sc3c(=O)n(-c4ccc(Cl)cc4)cnc3c12 [73H],150 to 1000 nM
15,Cc1ccc(-n2cnc3c(sc4ncnc(Nc5ccccc5)c43)c2=O)cc1 [95FW],> 1000 nM
16,COCC(C)Nc1ccnc2sc3c(=O)n(-c4ccc(Br)cc4)cnc3c12 (centres unmarked) [28HA],150 to 1000 nM
17,CSCCNc1ccnc2sc3c(=O)n(-c4ccc(C)cc4)cnc3c12 [28EV],< 50 nM
18,C=CCNc1ccnc2sc3c(=O)n(-c4ccc(Br)cc4)cnc3c12 [28DR],< 50 nM

row,Structure (SMILES),IC50
1,COc1ccc(Nc2ncnc3sc4c(=O)n(-c5ccc(C)cc5)cnc4c23)cc1 [95GJ],50 to 150 nM
2,CNc1nncc2sc3c(=O)n(-c4ccc(C)cc4)cnc3c12 [167H],150 to 1000 nM
3,O=c1c2sc3nccc(OCC4CC4)c3c2ncn1-c1ccc(Br)cc1 [66L],150 to 1000 nM
4,C=C(C)CNc1ccnc2sc3c(=O)n(-c4ccc(Br)cc4)cnc3c12 [28FC],< 50 nM
5,C=CCN(C)c1ccnc2sc3c(=O)n(-c4ccc(OC)cc4)cnc3c12 [28EA],< 50 nM
6,COc1ccc(-n2cnc3c(sc4nc(Cl)cc(NC5CC5)c43)c2=O)cc1 [57D],150 to 1000 nM
7,C=C(C)CNc1ncnc2sc3c(=O)n(C4CCCC4)cnc3c12 [95FL],< 50 nM
8,CCN(C)c1ccnc2sc3c(=O)n(-c4ccc5occc5c4)cnc3c12 [28BU],< 50 nM
9,C#CCNc1nncc2sc3c(=O)n(-c4ccc(C)cc4)cnc3c12 [167J],50 to 150 nM
10,C#CCOc1ccnc2sc3c(=O)n(-c4ccc(Cl)cc4)cnc3c12 [66G],< 50 nM
11,CCNc1ccnc2sc3c(=O)n(-c4ccc(F)cc4)cnc3c12 [28HY],< 50 nM
12,CN(C)c1ccnc2sc3c(=O)n(C4CCCC(C(=O)O)C4)cnc3c12 (centres unmarked) [28EJ],> 1000 nM
13,Cc1ccc(-n2cnc3c(sc4ncnc(N(C)C5CC5)c43)c2=O)cc1 [95DZ],< 50 nM
14,O=c1c2sc3nccc(NCCCCO)c3c2ncn1-c1ccc(F)cc1 [28GU],< 50 nM
15,O=c1c2sc3ncnc(NC4CCC4)c3c2ncn1-c1ccc(Cl)cc1 [95DD],150 to 1000 nM
16,CNc1ccnc2sc3c(=O)n(-c4ccncc4)cnc3c12 [28EF],150 to 1000 nM
17,O=c1c2sc3nccc(N4CC(O)C4)c3c2ncn1-c1ccc(Cl)cc1 [28DI],150 to 1000 nM

# Same assay, conditions: against Quisqualate 1 μM (EC80), FLIPR calcium mobilization, read-out: mGluR1 IC50
row,Structure (SMILES),IC50
1,CCN(C)c1ccnc2sc3c(=O)n(-c4ccc(Cl)cc4)cnc3c12 [28IC],2.09 nM

# Same assay, conditions: against Quisqualate 1 μM (EC80), class symbols, read-out: mGIuR 1 IC50
row,Structure (SMILES),IC50
1,CN(C)c1cncc2sc3c(=O)n(-c4ccc5c(c4)OCCO5)cnc3c12 [37C],50 to 150 nM
2,CCCCn1cnc2c(sc3nccc(N(C)C)c32)c1=O [7P],50 to 150 nM
3,CN(C)c1cccc2sc3c(=O)n(C4CCCCC4)cnc3c12 [103B],150 to 1000 nM
4,CN(C)c1ccnc2sc3c(=O)n(-c4ccc(Br)c(C(F)(F)F)c4)cnc3c12 [7DS],150 to 1000 nM
5,CN(C)c1ccnc2sc3c(=O)n(NC(=O)C4CCC4)c(C4CCC4)nc3c12 [65D],> 1000 nM
6,CNc1c(Cl)cnc2sc3c(=O)n(C4CCCCC4)cnc3c12 [compound 42],50 to 150 nM
7,CCCNc1ccnc2sc3c(=O)n(-c4ccc(C)cc4)cnc3c12 [28AS],< 50 nM
8,Cc1cccc(-n2cnc3c(sc4nccc(N(C)C)c43)c2=O)n1 [7CX],50 to 150 nM
9,CN(C)c1ccnc2sc3c(=O)n(C4CCC5(CC4)OCCO5)cnc3c12 [compound 19],150 to 1000 nM
10,CN(C)c1ccnc2sc3c(=O)n(Cc4ccco4)cnc3c12 [15H],150 to 1000 nM
11,O=c1c2sc3nccc(NC4Cc5ccccc5C4)c3c2ncn1C1CCCCC1 [72D],> 1000 nM
12,CCNc1ncnc2sc3c(=O)n(-c4ccc(SC)cc4)cnc3c12 [95AD],< 50 nM
13,CN(C)c1c(Cl)cnc2sc3c(=O)n(C4CCCCC4)cnc3c12 [compound 41],50 to 150 nM
14,CC#CCOc1ccnc2sc3c(=O)n(-c4ccc(C)cc4)cnc3c12 [66B],> 1000 nM
15,CN(C)c1ccnc2sc3c(=O)n(C4CC4)cnc3c12 [15K],> 1000 nM
16,CN(C)c1cccc2sc3c(=O)n(-c4ccc5scnc5c4)cnc3c12 [103F],150 to 1000 nM
17,O=C1CCCN1c1ccnc2sc3c(=O)n(C4CCCCC4)cnc3c12 [30C],> 1000 nM
18,O=c1c2sc3nccc(NCCO)c3c2ncn1C1CCCCC1 [28AG],50 to 150 nM
19,CCOC(=O)c1cnc2sc3c(=O)n(-c4ccc(C)cc4)cnc3c2c1 [144A],50 to 150 nM

row,Structure (SMILES),IC50
1,CN(C)c1ncnc2sc3c(=O)n(-c4ccc5ncsc5c4)cnc3c12 [95C],< 50 nM
2,Cc1nc2c(sc3nccc(NC4CC4)c32)c(=O)n1-c1ccccc1 [113C],150 to 1000 nM
3,Cc1cc(N(C)C)c2c(n1)sc1c(=O)n(-c3ccc(C(F)(F)F)cc3)cnc12 [7DM],150 to 1000 nM
4,CCNc1ncnc2sc3c(=O)n(-c4ccc(C)cc4)cnc3c12 [95P],< 50 nM
5,CCN(C)c1ncnc2sc3c(=O)n(-c4cccnc4)cnc3c12 [95M],50 to 150 nM
6,CN(C)c1ccnc2sc3c(=O)n(-c4cccc5nonc45)cnc3c12 [7BR],150 to 1000 nM
7,CN(C)c1ccnc2sc3c(=O)n(-c4ccc5occc5c4)cnc3c12 [7BY],< 50 nM
8,CN(C)c1cccc2sc3c(=O)n(-c4ccccc4)cnc3c12 [103C],150 to 1000 nM
9,CN(C)c1cncc2sc3c(=O)n(-c4ccc5scnc5c4)cnc3c12 [37B],150 to 1000 nM
10,CN(C)c1ccnc2sc3c(=O)n(-c4cccnc4)cnc3c12 [7O],50 to 150 nM
11,CCOC(=O)N1CCC(n2cnc3c(sc4nccc(N(C)C)c43)c2=O)CC1 [7J],> 1000 nM
12,CCc1nc2c(sc3nccc(N(C)C)c32)c(=O)n1-c1ccc(OC)cc1 [116E],50 to 150 nM
13,Cc1nc2ccc(-n3cnc4c(sc5nccc(N(C)C)c54)c3=O)cc2[nH]1 [7BV],> 1000 nM
14,CCCNc1ccnc2sc3c(=O)n(C4CCCCC4)cnc3c12 [28Q],50 to 150 nM
15,COc1cc(Cl)nc2sc3c(=O)n(C4CCCCC4)cnc3c12 [compound 78],> 1000 nM
16,CN(C)c1ccnc2sc3c(=O)n(N4CCCCC4)cnc3c12 [60A],< 50 nM
17,CCCCNc1ccnc2sc3c(=O)n(C4CCCCC4)cnc3c12 [28R],150 to 1000 nM
18,Cc1ccc(-n2cnc3c(sc4nccc(N(C)C)c43)c2=O)cc1 [7BF],< 50 nM
19,O=C(Nc1ccnc2sc3c(=O)n(C4CCCCC4)cnc3c12)c1ccco1 [73E],> 1000 nM
